Experimental data reported in US20260250290A1 (BRISTOL-MYERS SQUIBB COMPANY, priority 2023, published 2026).
pIC50: −log10 of the molar value. Counter-ions that a name gives are not always drawn.

Target: T1, SGK1 (Homo sapiens, UniProt O00141)
T1 sequence (O00141 1-431): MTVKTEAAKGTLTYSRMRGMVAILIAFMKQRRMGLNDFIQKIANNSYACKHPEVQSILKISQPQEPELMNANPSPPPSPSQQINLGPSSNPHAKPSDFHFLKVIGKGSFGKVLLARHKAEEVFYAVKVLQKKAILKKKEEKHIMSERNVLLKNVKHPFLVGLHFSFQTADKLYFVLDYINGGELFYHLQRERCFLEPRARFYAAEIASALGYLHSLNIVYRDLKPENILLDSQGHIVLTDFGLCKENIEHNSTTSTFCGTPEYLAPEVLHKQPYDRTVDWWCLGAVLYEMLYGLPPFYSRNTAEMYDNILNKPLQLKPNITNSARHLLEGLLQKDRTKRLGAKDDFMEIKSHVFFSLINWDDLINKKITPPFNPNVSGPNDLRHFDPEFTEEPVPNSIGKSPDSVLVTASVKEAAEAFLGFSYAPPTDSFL
Assay: SGK1 inhibition Assay B (Echo mass spectrometry of phosphorylated peptide product)
Type: biochemical
Settings: 60 min at room temperature

SMILES	pIC50
CCC(C)(C)NC1CCC(Oc2nc(C)sc2C(=O)N[C@@H]2CCCN(c3cc(-c4ccc(C(N)=O)c(F)n4)n4ncnc(N)c34)C2)CC1 (stereo partly drawn) [Example 1055, (R)—N-(1-(4-amino-7-(5-carbamoyl-6-fluoropyridin-2-yl)pyrrolo[2,1-f][1,2,4]triazin-5-yl)piperidin-3-yl)-2-methyl-4-((4-(tert-pentylamino)cyclohexyl)oxy)thiazole-5-carboxamide]	9.30
CCC1=C(c2cc(N3CCC[C@@H](NC(=O)c4sc(C)nc4O[C@H]4CC[C@@H](NC(C)CO)CC4)C3)c3c(N)ncnn23)COC1=O (single isomer, unassigned) [Example 1019]	9.30
COCC(C)(C)NC1CCC(Oc2nc(C)sc2C(=O)N[C@@H]2CCCN(c3cc(C4=CC(=O)OC4)n4ncnc(N)c34)C2)CC1 (stereo partly drawn) [Example 1000, (R)—N-(1-(4-amino-7-(5-oxo-2,5-dihydrofuran-3-yl)pyrrolo[2,1-f][1,2,4]triazin-5-yl)piperidin-3-yl)-4-((4-((1-methoxy-2-methylpropan-2-yl)amino)cyclohexyl)oxy)-2-methylthiazole-5-carboxamide]	9.15
Cc1nc(O[C@@H]2CC[C@H]3[C@H](CCN3C)C2)c(C(=O)N[C@@H]2CCCN(c3cc(-c4ccc(C(N)=O)c(F)c4)n4ncnc(N)c34)C2)s1 [Example 918, 4-{[(3aR,5R,7aS)-1-methyl-octahydro-1H-indol-5-yl]oxy}-N-[(3R)-1-[4-amino-7-(4-carbamoyl-3-fluorophenyl)pyrrolo[2,1-f][1,2,4]triazin-5-yl]piperidin-3-yl]-2-methyl-1,3-thiazole-5-carboxamide]	8.70
CCN1CCC(Oc2nc(C)sc2C(=O)N[C@@H]2CCCN(c3cc(C4=CCN(C(C)=O)C4)n4ncnc(N)c34)C2)CC1(C)C (single isomer, unassigned) [Example 946]	7.92
CC(C)N1CC2(CN(c3cccc(C(=O)N[C@@H]4CCCN(c5cc(-c6cnc(-n7cnnn7)c(F)c6)n6ncnc(N)c56)C4)n3)C2)C1 [Example 830, (R)-N-(1-(4-amino-7-(5-fluoro-6-(1H-tetrazol-1-yl)pyridin-3-yl)pyrrolo[2,1-f][1,2,4]triazin-5-yl)piperidin-3-yl)-6-(6-isopropyl-2,6-diazaspiro[3.3]heptan-2-yl)picolinamide]	8.40
Cc1nc(OC2CCC(NC(C)(C)C)CC2)c(C(=O)N[C@@H]2CCCN(c3cc(-c4ccc(S(C)(=O)=O)cn4)n4ncnc(N)c34)C2)s1 (stereo partly drawn) [Example 1026, (R)—N-(1-(4-amino-7-(5-(methylsulfonyl)pyridin-2-yl)pyrrolo[2,1-f][1,2,4]triazin-5-yl)piperidin-3-yl)-4-((4-(tert-butylamino)cyclohexyl)oxy)-2-methylthiazole-5-carboxamide]	8.66
Cc1nc(OC2CCC(N3CCC3)CC2)c(C(=O)N[C@@H]2CCCN(c3cc(-c4ccc(C(N)=O)c(F)n4)n4ncnc(N)c34)C2)s1 (stereo partly drawn) [Example 1041, (R)—N-(1-(4-amino-7-(5-carbamoyl-6-fluoropyridin-2-yl)pyrrolo[2,1-f][1,2,4]triazin-5-yl)piperidin-3-yl)-4-((4-(azetidin-1-yl)cyclohexyl)oxy)-2-methylthiazole-5-carboxamide]	8.77
Cc1nc(O[C@@H]2CCC[C@H](N(C)C)C2)c(C(=O)N[C@@H]2CCCN(c3cc(-c4ccc(C(N)=O)c(F)c4)n4ncnc(N)c34)C2)s1 (single isomer, unassigned; isomer 1) [Example 939]	9.05
CC(C)N1CC2(CN(c3cccc(C(=O)N[C@@H]4CCCN(c5cc(-c6cnc(-n7cnnn7)nc6)n6ncnc(N)c56)C4)n3)C2)C1 [Example 828, (R)-N-(1-(7-(2-(1H-tetrazol-1-yl)pyrimidin-5-yl)-4-aminopyrrolo[2,1-f][1,2,4]triazin-5-yl)piperidin-3-yl)-6-(6-isopropyl-2,6-diazaspiro[3.3]heptan-2-yl)picolinamide]	7.60
CC1=C(c2cc(N3CCC[C@@H](NC(=O)c4sc(C)nc4OC4CCC(N(C)C)CC4)C3)c3c(N)ncnn23)COC1=O (stereo partly drawn) [Example 1017, N—((R)-1-(4-amino-7-(4-methyl-5-oxo-2,5-dihydrofuran-3-yl)pyrrolo[2,1-f][1,2,4]triazin-5-yl)piperidin-3-yl)-4-(((1S,4S)-4-(dimethylamino)cyclohexyl)oxy)-2-(methyl-d3)thiazole-5-carboxamide]	8.80
CC(C)N1CC2(CN(c3cccc(C(=O)N[C@@H]4CCCN(c5cc(-c6ccc(S(C)(=O)=O)cc6)n6ncnc(N)c56)C4)n3)C2)C1 [Example 832, (R)-N-(1-(4-amino-7-(4-(methylsulfonyl)phenyl)pyrrolo[2,1-f][1,2,4]triazin-5-yl)piperidin-3-yl)-6-(6-isopropyl-2,6-diazaspiro[3.3]heptan-2-yl)picolinamide]	7.92
Cc1cc(-c2cc(N3CCC[C@@H](NC(=O)c4sc(C)nc4OC4CCC(N5CCC5)CC4)C3)c3c(N)ncnn23)cnn1 (stereo partly drawn) [Example 1047, N—((R)-1-(4-amino-7-(6-methylpyridazin-4-yl)pyrrolo[2,1-f][1,2,4]triazin-5-yl)piperidin-3-yl)-4-((4-(azetidin-1-yl)cyclohexyl)oxy)-2-methylthiazole-5-carboxamide]	8.00
CCC(C)(C)N[C@H]1CC[C@@H](Oc2nc(C)sc2C(=O)N[C@@H]2CCCN(c3cc(-c4ccnc(OC)n4)n4ncnc(N)c34)C2)CC1 [Example 1030, (R)—N-(1-(4-amino-7-(2-methoxypyrimidin-4-yl)pyrrolo[2,1-f][1,2,4]triazin-5-yl)piperidin-3-yl)-2-methyl-4-((4-(tert-pentylamino)cyclohexyl)oxy)thiazole-5-carboxamide]	9.05
CC(C)N1CC2CCC1CC2Oc1cc(Cl)sc1C(=O)N[C@@H]1CCCN(c2cc(-c3ccc(-n4cnnn4)nc3)n3ncnc(N)c23)C1 (stereo partly drawn) [Example 989, N—((R)-1-(7-(6-(1H-tetrazol-1-yl)pyridin-3-yl)-4-aminopyrrolo[2,1-f][1,2,4]triazin-5-yl)piperidin-3-yl)-5-chloro-3-((2-isopropyl-2-azabicyclo[2.2.2]octan-5-yl)oxy)thiophene-2-carboxamide]	9.05
Cc1nc(O[C@@H]2C[C@H]3CC[C@@H](C2)N3)c(C(=O)N[C@@H]2CCCN(c3cc(-c4ccc5c(c4)OCCNC5=O)n4ncnc(N)c34)C2)s1 [Example 966, 4-(((1R,3s,5S)-8-azabicyclo [3.2.1]octan-3-yl)oxy)-N—((R)-1-(4-amino-7-(5-oxo-2,3,4,5-tetrahydrobenzo[f][1,4]oxazepin-8-yl)pyrrolo[2,1-f][1,2,4]triazin-5-yl)piperidin-3-yl)-2-methylthiazole-5-carboxamide]	8.10

Further molecules by rising pIC50, results first:

pIC50	SMILES
7.28	CCOC1=C(C(=O)N[C@@H]2CCCN(c3cc(C4=CCN(C(C)=O)C4)n4ncnc(N)c34)C2)CN(c2ccc(F)cc2F)C1=O [Example 756]
7.77	CN1[C@@H]2CC[C@H]1C[C@H](Oc1cc(Cl)sc1C(=O)N[C@@H]1CCCN(c3cc(-c4ccc(C(F)(F)F)c(F)c4)n4ncnc(N)c34)C1)C2 [Example 841, N-((R)-1-(4-amino-7-(3-fluoro-4-(trifluoromethyl)phenyl)pyrrolo[2,1-f][1,2,4]triazin-5-yl)piperidin-3-yl)-5-chloro-3-(((1R,3s,5S)-8-methyl-8-azabicyclo[3.2.1]octan-3-yl)oxy)thiophene-2-carboxamide]
8.15	CC(=O)N1CC=C(c2cc(N3CCC[C@@H](NC(=O)c4sc(Cl)cc4OCC(C)(C)O)C3)c3c(N)ncnn23)C1 [Example 921, (R)—N-(1-(7-(1-acetyl-2,5-dihydro-1H-pyrrol-3-yl)-4-aminopyrrolo[2,1-f][1,2,4]triazin-5-yl)piperidin-3-yl)-5-chloro-3-(2-hydroxy-2-methylpropoxythiophene-2-carboxamide TFA salt]
8.70	CC(=O)N1CC=C(c2cc(N3CCC[C@@H](NC(=O)c4sc(Cl)cc4OC4CCC(N5CCOCC5)CC4)C3)c3c(N)ncnn23)C1 (single isomer, unassigned; isomer 1) [Example 936]
8.70	CN1CCN(c2nccc(C(=O)N[C@@H]3CCCN(c4cc(-c5ccc(-n6cnnn6)c(F)c5)n5ncnc(N)c45)C3)n2)CC1 [Example 849, (R)-N-(1-(4-amino-7-(3-fluoro-4-(1H-tetrazol-1-yl)phenyl)pyrrolo[2,1-f][1,2,4]triazin-5-yl)piperidin-3-yl)-2-(4-methylpiperazin-1-yl)pyrimidine-4-carboxamide]
8.70	CN1C2CCC1CC(Oc1cc(Cl)sc1C(=O)NC1CCCN(c3cc(-c4cnn(C(F)F)c4)n4ncnc(N)c34)C1)C2 [Example 836, N-((R)-1-(4-amino-7-(1-(difluoromethyl)-1H-pyrazol-4-yl)pyrrolo[2,1-f][1,2,4]triazin-5-yl)piperidin-3-yl)-5-chloro-3-(((1R,3s,5S)-8-methyl-8-azabicyclo[3.2.1]octan-3-yl)oxy)thiophene-2-carboxamide]
9.00	CN(C)C1CC2(CC(Oc3cc(Cl)sc3C(=O)N[C@@H]3CCCN(c4cc(-c5ccc(C(N)=O)c(F)c5)n5ncnc(N)c45)C3)C2)C1 (stereo partly drawn) [Example 944, (R)—N-(1-(4-Amino-7-(4-carbamoyl-3-fluorophenyl)pyrrolo[2,1-f][1,2,4]triazin-5-yl)piperidin-3-yl)-5-chloro-3-((6-(dimethylamino)spiro[3.3]heptan-2-yl)oxy)thiophene-2-carboxamide]
10.00	Cc1nc(O[C@@H]2C[C@H]3CC[C@@H](C2)N3C)c(C(=O)N[C@@H]2CCCN(c3cc(-c4csc(C(C)O)c4)n4ncnc(N)c34)C2)s1 (stereo partly drawn) [Example 928, N-((3R)-1-(4-amino-7-(5-(1-hydroxyethyl)thiophen-3-yl)pyrrolo[2,1-f][1,2,4]triazin-5-yl)piperidin-3-yl)-2-methyl-4-(((1R,3s,5S)-8-methyl-8-azabicyclo[3.2.1]octan-3-yl)oxy)thiazole-5-carboxamide, TFA salt]
